Results taken from ChEMBL document CHEMBL3885861, “Open TG-GATES”.

Species: Rattus norvegicus
Assay: Open TG-GATES - Regimen: Single
Assay type: toxicity, organism-based, Sprague-Dawley
Parameters: regimen Single, gender Male, age 6 weeks
Settings: in vivo, po, route gavage; for Bas / Eos / Fbg / Ht / Lym / MCHC / MCV / Mono / Neu / PT / Plat / RBC / Ret / WBC / APTT / Hb: tissue Blood; for KIDNEY_L / KIDNEY_R / KIDNEY_TOTAL: tissue Kidney; for LIVER: tissue Liver; for ALP / ALT / AST / BUN / CRE / Ca / Cl / DBIL / GLC / IP / LDH / Na / PL / RALB / TBIL / TC / TG / TP / gamma-GTP: tissue Plasma
[1] = 120 mg/kg, 3 h, dose level Middle
[2] = 120 mg/kg, 6 h, dose level Middle
[3] = 120 mg/kg, 9 h, dose level Middle
[4] = 120 mg/kg, 24 h, dose level Middle
[5] = 400 mg/kg, 3 h, dose level High
[6] = 400 mg/kg, 6 h, dose level High
[7] = 400 mg/kg, 9 h, dose level High
[8] = 400 mg/kg, 24 h, dose level High

## CC(C)N(CCC(C(N)=O)(c1ccccc1)c1ccccn1)C(C)C (stereo not drawn) [DISOPYRAMIDE]
[1]
  Bas: 0%
  Eos: 0.8%
  Fbg: 307.4 mg/dL
  Ht: 41.8%
  Lym: 77.4%
  MCHC: 32.3%
  MCV: 62.8 fL
  Mono: 2.2%
  Neu: 19%
  PT: 15.5 s
  Plat: 121.9 x10_4/uL
  RBC: 665.8 x10_4/ul
  Ret: 7.4%
  WBC: 63.5 x10_2/uL
  KIDNEY_L: 0.9 g
  KIDNEY_R: 1 g
  KIDNEY_TOTAL: 1.9 g
  LIVER: 9.5 g
  ALP: 1368.8 IU/L
  ALT: 51.2 IU/L
  AST: 89.2 IU/L
  BUN: 10.6 mg/dL
  CRE: 0.2 mg/dL
  Ca: 10.4 mg/dL
  Cl: 106 meq/L
  DBIL: 0.002 mg/dL
  GLC: 161 mg/dL
  IP: 8.5 mg/dL
  LDH: 202.4 IU/L
  Na: 141.6 meq/L
  PL: 124 mg/dL
  RALB: 3.1 g/dL
  TBIL: 0.002 mg/dL
  TC: 70.6 mg/dL
  TG: 47 mg/dL
  TP: 5.6 g/dL
  gamma-GTP: 1 IU/L
[2]
  TERMINAL_BW: 209.6 g
  APTT: 22.7 s
  Bas: 0%
  Eos: 0.8%
  Fbg: 320.6 mg/dL
  Hb: 12.9 g/dL
  Ht: 40.3%
  Lym: 72.2%
  MCHC: 31.9%
  MCV: 63.4 fL
  Mono: 2.6%
  Neu: 23.4%
  PT: 15.5 s
  Plat: 123.1 x10_4/uL
  RBC: 635.2 x10_4/ul
  Ret: 7.7%
  WBC: 86 x10_2/uL
  KIDNEY_L: 0.9 g
  KIDNEY_R: 1 g
  KIDNEY_TOTAL: 1.9 g
  LIVER: 9.2 g
  ALP: 1458 IU/L
  ALT: 41.2 IU/L
  AST: 72.6 IU/L
  BUN: 11.6 mg/dL
  CRE: 0.2 mg/dL
  Ca: 10.7 mg/dL
  Cl: 106 meq/L
  DBIL: 0.002 mg/dL
  GLC: 159.2 mg/dL
  IP: 9.1 mg/dL
  LDH: 198.6 IU/L
  Na: 139.4 meq/L
  PL: 142 mg/dL
  RALB: 3 g/dL
  TBIL: 0.002 mg/dL
  TC: 80.8 mg/dL
  TG: 82.2 mg/dL
  TP: 5.6 g/dL
  gamma-GTP: 1.4 IU/L
[3]
  TERMINAL_BW: 199.9 g
  APTT: 21.7 s
  Bas: 0%
  Eos: 0.8%
  Fbg: 330 mg/dL
  Ht: 41.9%
  Lym: 77.2%
  MCHC: 32.4%
  MCV: 64.1 fL
  Mono: 1.8%
  Neu: 19.8%
  PT: 15.7 s
  Plat: 117.5 x10_4/uL
  RBC: 653.4 x10_4/ul
  Ret: 7.3%
  WBC: 61.1 x10_2/uL
  KIDNEY_L: 0.9 g
  KIDNEY_R: 1 g
  KIDNEY_TOTAL: 1.9 g
  LIVER: 8.3 g
  ALP: 1309 IU/L
  ALT: 35.6 IU/L
  AST: 67.6 IU/L
  BUN: 13.6 mg/dL
  CRE: 0.2 mg/dL
  Ca: 10.7 mg/dL
  Cl: 107.6 meq/L
  DBIL: 0 mg/dL
  GLC: 149.6 mg/dL
  IP: 8.9 mg/dL
  LDH: 166 IU/L
  Na: 140.8 meq/L
  PL: 121 mg/dL
  RALB: 3.1 g/dL
  TBIL: 0.006 mg/dL
  TC: 63.2 mg/dL
  TG: 74 mg/dL
  TP: 5.6 g/dL
  gamma-GTP: 1.2 IU/L
[4]
  TERMINAL_BW: 220.9 g
  APTT: 21 s
  Bas: 0%
  Eos: 1%
  Fbg: 319 mg/dL
  Ht: 40.2%
  Lym: 80.8%
  MCHC: 32.7%
  MCV: 64.1 fL
  Mono: 1.8%
  Neu: 15.6%
  PT: 15.8 s
  Plat: 119.1 x10_4/uL
  RBC: 627.6 x10_4/ul
  Ret: 7.3%
  WBC: 89.5 x10_2/uL
  KIDNEY_L: 1 g
  KIDNEY_R: 1 g
  KIDNEY_TOTAL: 2 g
  LIVER: 11.2 g
  ALP: 1568 IU/L
  ALT: 53.6 IU/L
  AST: 76.6 IU/L
  BUN: 14.6 mg/dL
  CRE: 0.2 mg/dL
  Ca: 10.9 mg/dL
  Cl: 105.6 meq/L
  DBIL: 0 mg/dL
  IP: 8.9 mg/dL
  LDH: 160 IU/L
  Na: 143.4 meq/L
  PL: 157 mg/dL
  RALB: 3 g/dL
  TBIL: 0 mg/dL
  TC: 82.2 mg/dL
  TG: 118.2 mg/dL
  TP: 5.5 g/dL
  gamma-GTP: 1.6 IU/L
[5]
  TERMINAL_BW: 210.5 g
  APTT: 22.6 s
  Bas: 0%
  Eos: 1%
  Fbg: 327.6 mg/dL
  Ht: 41.8%
  Lym: 74.6%
  MCHC: 32.1%
  MCV: 62.7 fL
  Mono: 2.2%
  Neu: 22%
  PT: 15.5 s
  Plat: 127.1 x10_4/uL
  RBC: 667.8 x10_4/ul
  Ret: 8%
  WBC: 55.8 x10_2/uL
  KIDNEY_L: 1 g
  KIDNEY_R: 1 g
  KIDNEY_TOTAL: 1.9 g
  LIVER: 9.8 g
  ALT: 47.4 IU/L
  AST: 85.2 IU/L
  BUN: 12.2 mg/dL
  CRE: 0.1 mg/dL
  Ca: 10.2 mg/dL
  Cl: 106.2 meq/L
  DBIL: 0.002 mg/dL
  GLC: 129.8 mg/dL
  IP: 8.9 mg/dL
  LDH: 264.8 IU/L
  Na: 142.8 meq/L
  PL: 126.6 mg/dL
  RALB: 3 g/dL
  TBIL: 0 mg/dL
  TC: 74.2 mg/dL
  TG: 47.8 mg/dL
  TP: 5.6 g/dL
  gamma-GTP: 1 IU/L
[6]
  TERMINAL_BW: 207.1 g
  APTT: 22.8 s
  Bas: 0%
  Eos: 0.4%
  Fbg: 326 mg/dL
  Ht: 42.8%
  Lym: 73.2%
  MCHC: 31.8%
  MCV: 62.5 fL
  Mono: 2.6%
  Neu: 23.2%
  PT: 15.4 s
  Plat: 122.6 x10_4/uL
  RBC: 685.8 x10_4/ul
  Ret: 7.5%
  WBC: 67.9 x10_2/uL
  KIDNEY_L: 1 g
  KIDNEY_R: 1 g
  KIDNEY_TOTAL: 2 g
  LIVER: 9.2 g
  ALP: 1240.8 IU/L
  ALT: 38.8 IU/L
  AST: 74 IU/L
  BUN: 12.2 mg/dL
  CRE: 0.1 mg/dL
  Ca: 10.4 mg/dL
  Cl: 105.8 meq/L
  DBIL: 0.006 mg/dL
  GLC: 157.2 mg/dL
  IP: 8.7 mg/dL
  LDH: 237.8 IU/L
  Na: 140.6 meq/L
  PL: 132.2 mg/dL
  RALB: 3 g/dL
  TBIL: 0.006 mg/dL
  TC: 75.4 mg/dL
  TG: 43.2 mg/dL
  TP: 5.6 g/dL
  gamma-GTP: 1.6 IU/L
[7]
  TERMINAL_BW: 208.7 g
  APTT: 24 s
  Bas: 0%
  Eos: 0.4%
  Fbg: 326 mg/dL
  Ht: 42.6%
  Lym: 71.8%
  MCHC: 31.9%
  MCV: 62.9 fL
  Mono: 1.8%
  Neu: 25.4%
  PT: 15.7 s
  Plat: 120.6 x10_4/uL
  RBC: 677.6 x10_4/ul
  Ret: 7.7%
  WBC: 64.5 x10_2/uL
  KIDNEY_L: 1 g
  KIDNEY_R: 1 g
  KIDNEY_TOTAL: 2 g
  LIVER: 9 g
  ALP: 1238 IU/L
  ALT: 41 IU/L
  AST: 79 IU/L
  BUN: 14 mg/dL
  CRE: 0.1 mg/dL
  Ca: 10.6 mg/dL
  Cl: 106 meq/L
  DBIL: 0 mg/dL
  GLC: 145.6 mg/dL
  IP: 8.4 mg/dL
  LDH: 217.4 IU/L
  Na: 142 meq/L
  PL: 130.4 mg/dL
  RALB: 3.1 g/dL
  TBIL: 0 mg/dL
  TC: 70.8 mg/dL
  TG: 63.4 mg/dL
  TP: 5.8 g/dL
  gamma-GTP: 1.4 IU/L
[8]
  TERMINAL_BW: 215.7 g
  APTT: 23.1 s
  Bas: 0%
  Eos: 0.8%
  Fbg: 289.6 mg/dL
  Hb: 13 g/dL
  Ht: 40.3%
  Lym: 83%
  MCHC: 32.2%
  MCV: 63.1 fL
  Mono: 1.6%
  PT: 16.1 s
  Plat: 118.5 x10_4/uL
  RBC: 639.8 x10_4/ul
  Ret: 6.5%
  WBC: 82.6 x10_2/uL
  KIDNEY_L: 1 g
  KIDNEY_R: 1 g
  KIDNEY_TOTAL: 1.9 g
  LIVER: 8.8 g
  ALP: 1524 IU/L
  ALT: 48.2 IU/L
  AST: 78.6 IU/L
  BUN: 16 mg/dL
  CRE: 0.2 mg/dL
  Ca: 10.4 mg/dL
  Cl: 106 meq/L
  DBIL: 0 mg/dL
  GLC: 153.2 mg/dL
  IP: 8.8 mg/dL
  LDH: 215.8 IU/L
  PL: 133.2 mg/dL
  RALB: 2.8 g/dL
  TBIL: 0 mg/dL
  TC: 75 mg/dL
  TG: 58.2 mg/dL
  TP: 5.4 g/dL
  gamma-GTP: 2 IU/L
